Consider four substances from patent EP1298214A2, “Plant thioesterases” (Calgene LLC, priority 1990, dated 1991).

The subject of test [1] is Cuphea C10-preferring acyl-ACP thioesterase (preparation from Example 9C). The experiment in a line: Acyl-ACP hydrolysis by the Cuphea preparation from Example 9C. The settings on record: 0.5µM acyl-ACP, pH 9, 30°C for 60 min; corrected for non-enzymatic hydrolysis. In kind it is biochemical, Cuphea hookeriana. The procedure:
As a more preferred alternative to Example 9A or 9B, forty grams of polyvinylpolypyrrolidone (PVPP) are mixed with 550 ml "extraction buffer" comprising 200 mM bis-Tris-HCl pH 6., 10mM 2-mercaptoethanol, 1% (w/v) polyvinylpyrrolidone-10. To this mixture are added 40g frozen Cuphea seeds. The mixture is then blended in a Polytron homogenizer until no intact seeds remain and the slurry is smooth. This and all subsequent steps are conducted at 0-4°C. The preparation is centrifuged at 12,000xg for 20 min and further clarified by filtration through Miracloth.
This preparation is mixed with 100ml of settled hydroxyapatite which has been equilibrated with "buffer A" (50mM bis-Tris-HCl pH 6., […] 2-mercaptoethanol). Three extract volumes of 10mM 2-mercaptoethanol are then added slowly over 30 min, with constant stirring. The hydroxyapatite gel is collected on a sintered glass funnel and rinsed with buffer A until the effluent is colorless. The collected hydroxyapatite is then transferred to a column and further rinsed with buffer A at 2ml/min until the column is packed. A 400ml elution gradient is applied (2ml/min), from buffer A to buffer B (300mM potassium phosphate pH 6.9 in buffer A). Effluent fractions are assayed for hydrolysis of 10:0-ACP. Two overlapping peaks of activity are obtained. The fractions comprising the later-eluting peak are pooled and dialyzed against buffer A.
The dialyzed material is applied at 1.3ml/min to a 2.5 x 6.5cm column of Blue 4 Agarose (Sigma Chemical Co.; St. Louis, MO) equilibrated with buffer A. The column is washed with buffer A, and enzyme activity is subsequently eluted with a 400ml gradient from buffer A to buffer C (buffer A containing 1M NaCl). The eluted fractions contain three peaks of 10:0-ACP hydrolysis activity. Those fractions comprising the second peak to elute (eluted by approximately 0.4m NaCl) are pooled and dialyzed against buffer A. […]
The preparation from Example 9C is relatively selective in its hydrolysis of acyl-ACP thioesters, as shown in the following table: (These activities were determined as follows. Twenty five µl of sample were added to 75µl assay buffer comprising 100mM glycine-KOH pH 9, 0.2% (w/v) CHAPS, 10mM 2-mercaptoethanol, and containing radiolabeled acyl-ACP for a final concentration of 0.5µM. After incubation at 30°C for 60 min, the reaction was terminated by addition of 0.5ml 10% (v/v) acetic acid, and the liberated fatty acid product was extracted with 1ml diethyl ether. Enzyme activity was measured by the radioactivity of this ether extract, determined by liquid scintillation counting. […]

For test [2], the system named is pET3a-THI0 E. coli lysate (truncated Bay 12:0-ACP thioesterase). Put plainly: Acyl-ACP hydrolysis by lysate of E. coli expressing truncated Bay thioesterase cDNA. In kind it is biochemical, Umbellularia californica. The settings on record: 1 hour induction with 1mM IPTG. On the procedure: To assay for C12 thioesterase activity the following mixture is incubated at 30° for 30 min: "buffer" comprising 7mM KH2PO4-KOH pH 8, 20% v/v glycerol, 1mM dithiothreitol (DTT), 0.1% v/v Triton X100; sample to be tested for activity in the same or similar buffer as the "extraction buffer" described in Example 2; and 5µl of ^14C-radiolabeled lauroyl-ACP substrate for a total volume of 100µl and final lauroyl-ACP concentration of 0.5µM. Lauroyl-ACP substrate is prepared according to the method of Rock et al (Methods in Enzymology (1981) 72:397-403), using ACP prepared from Escherichia coli by the method of Rock and Cronan (Methods in Enzymology (1981) 71:341-351). The laurate is radiolabeled in the carboxylate group at a specific radioactivity of 50-60µCi/µmol.
The reaction is stopped by adding 0.5ml cold (0°) 10% v/v acetic acid. The fatty acid product of the hydrolytic enzyme action is extracted away from the unhydrolyzed substrate by adding 1ml diethyl ether and mixing vigorously. After settling for a few minutes the upper ether layer is transferred to 5ml scintillation fluid for determination of radioactivity by liquid scintillation spectrometry. Additional ether extractions may be performed to recover remaining traces of the reaction product for more accurate quantitation of the enzyme activity if desired. The amount of ether-extracted radioactivity is a direct measure of C12-preferring acyl-ACP thioesterase activity, provided the amount of enzyme is not sufficient to hydrolyze more than about 25% of the substrate. With greater activity than this the relationship between radioactivity in the ether layer and the quantity of enzyme becomes markedly nonlinear. The enzyme preparation must then be diluted appropriately to bring the activity into the linear range of the assay.
A pET3a vector (Rosenberg, et al., Gene (1987) 56:125-135) is used in an E. coil strain BL21 (PE3) (Studier and Moffat, J. Mol. Biol. (1986) 189:113-130) host for this study. The pET3a vector contains a promoter and 33 bp of the 5' reading frame of bacteriophase T7. T7 polymerase is under the regulatory control of an isopropyl-b-D-thiogalactopyranoside (IPTG)-inducible lac UV5 promoter found in the E. coli BL21 (DE3) strain. Thus, by the addition of IPTG to E. coli BL21 (DE3) transformed with pET3a, the T7 promoter will be activated.
Constructs are prepared containing the truncated cDNA of Fig. 2 fused in reading frame by deletion of the BamHI/EcoRI fragment and replacement of the thioesterase sequence. E. coli are transformed with pET3a constructs containing the thioesterase (pET3a-THI0) and unmodified pET3a as a control. The E. coli are grown at 37°C in liquid medium and expression is induced by the addition of 1mM IPTG. […]

Chain of pET3a-THI0 E. coli lysate (truncated Bay 12:0-ACP thioesterase) (Q41635 143-382 limits assumed): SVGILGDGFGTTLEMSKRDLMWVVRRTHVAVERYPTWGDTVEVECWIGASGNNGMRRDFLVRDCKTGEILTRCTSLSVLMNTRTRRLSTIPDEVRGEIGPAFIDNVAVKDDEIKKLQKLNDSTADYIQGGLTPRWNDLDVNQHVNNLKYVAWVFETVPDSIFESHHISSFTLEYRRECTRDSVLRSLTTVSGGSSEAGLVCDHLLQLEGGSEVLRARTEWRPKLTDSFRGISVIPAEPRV

14:0-ACP had an Activity in test [1] of 30 cpm. For the same substance, in test [2], the “Hydrolysis Activity (mean cpm in ether extract)” value (“Hydrolysis Activity” for short) is reported as 1035 cpm.

Regarding decanoyl-ACP [10:0-ACP], the Activity in test [1] came out at 1010 cpm. The “Hydrolysis Activity” value in test [2] is recorded as 621 cpm.

The substance 16:0-ACP registered an Activity in test [1] of 262 cpm. Moreover, the “Hydrolysis Activity” value in test [2] was 1900 cpm.

Take lauroyl-ACP [12:0-ACP]: the Activity in test [1] was 393 cpm. For the same substance, the “Hydrolysis Activity” value in test [2] is 2127 cpm.
